Source: PMC7534258, “Novel temporin L antimicrobial peptides: promoting self-assembling by lipidic tags to tackle superbugs” (Journal of Enzyme Inhibition and Medicinal Chemistry, 2020)
≈ marks a conversion by molar mass, not a printed value. Where a SMILES comes first, the peptide text is derived from it. [ ]: non-standard residue; d: D form. The star is where a group is joined. Heptanoyl = CCCCCCC(=O)*; Pentanoyl = CCCCC(=O)*

How the values were obtained:
[1] = system: P. aeruginosa ATCC 27853; test: Broth microdilution MIC, reference strain; format: cell-based, Pseudomonas aeruginosa; conditions: for MIC: Pseudomonas aeruginosa, ATCC27853, antibiotics, 16–18 h at 37 °C, read-out: Antimicrobial activity (MIC) P. aeruginosa ATCC 27853
Protocol: (§1) Staphylococcus aureus ATCC 25923, Pseudomonas aeruginosa ATCC 27853 and Klebsiella pneumoniae ATCC BAA-1705 (carbapenemase producer) were obtained from the American Type Culture Collection (Rockville, MD).
(§2) Identification was performed by sub-culturing on Tryptic Soy Agar (TSA, Becton Dickinson) and by biochemical characterisation using the Vitek II system (Biomerieux). The antimicrobial susceptibility testing of all isolates was determined using Vitek II system and results were interpreted according to European Committee on Antimicrobial Susceptibility Testing (EUCAST version 9.0, 2019). P. aeruginosa was cultured in Brain Heart Infusion broth (BHI, OXOID), S. aureus and K. pneumoniae were cultured in Tryptic Soya broth (TSB, OXOID), under aerobic conditions at 37 °C, for 24 h on an orbital shaker at 200 rpm.
(§3) Minimal inhibitory concentrations (MIC) of all the peptides were determined in Mueller–Hinton medium by the broth microdilution assay, following the procedure already described[22]^,[34]. The compounds were added to bacterial suspension in each well yielding a final cell concentration of 1 × 10^6 CFU/ml and a final compound concentration ranging from 0.78 to 100 µM. Negative control wells were set to contain bacteria in Mueller–Hinton broth plus the amount of vehicle (ethanol) used to dilute each compound. Positive controls included vancomycin (2 µg/ml), tobramycin (4 µg/ml), gentamycin (4 µg/ml), and imipenem (8 µg/ml).

[2] = system: Sa2; test: microbe, parasite or virus in culture; conditions: Staphylococcus aureus, MRSA, read-out: Antimicrobial activity (MIC) Sa2
Protocol: (§4) Clinical strains of P. aeruginosa (Pa1, Pa2 and Pa3), K. pneumoniae (KpCR1, KpCR2 and KpCR3), and S. aureus (Sa1, Sa2 and Sa3) were isolated from bloodstream or pulmonary infections, and belong to a collection of bacterial strains established between 2010 and 2018 at the Department of Molecular Medicine and Medical Biotechnologies (University Federico II, Naples) for research use.
as §2, §3

[3] = system: Sa3; test: microbe, parasite or virus in culture; conditions: Staphylococcus aureus, MRSA, read-out: Antimicrobial activity (MIC) Sa3
Protocol: as §4, §2, §3

[4] = system: Pa3; test: microbe, parasite or virus in culture; conditions: Pseudomonas aeruginosa, read-out: Antimicrobial activity (MIC) Pa3
Protocol: as §4, §2, §3

[5] = system: KpCR2; test: microbe, parasite or virus in culture; conditions: Klebsiella pneumoniae, read-out: Antimicrobial activity (MIC) KpCR2
Protocol: as §4, §2, §3

[6] = system: KpCR3; test: microbe, parasite or virus in culture; conditions: Klebsiella pneumoniae, read-out: Antimicrobial activity (MIC) KpCR3
Protocol: as §4, §2, §3

[7] = system: Sa1; test: microbe, parasite or virus in culture; conditions: Staphylococcus aureus, MRSA, read-out: Antimicrobial activity (MIC) Sa1
Protocol: as §4, §2, §3

[8] = system: Pa2; test: microbe, parasite or virus in culture; conditions: Pseudomonas aeruginosa, read-out: Antimicrobial activity (MIC) Pa2
Protocol: as §4, §2, §3

[9] = system: Pa1; test: microbe, parasite or virus in culture; conditions: Pseudomonas aeruginosa, PA1, read-out: Antimicrobial activity (MIC) Pa1
Protocol: as §4, §2, §3

[10] = system: KpCR1; test: microbe, parasite or virus in culture; conditions: Klebsiella pneumoniae, read-out: Antimicrobial activity (MIC) KpCR1
Protocol: as §4, §2, §3

[11] = system: K. pneumoniae ATCC BAA-1705; test: Broth microdilution MIC, reference strain; format: cell-based, Klebsiella pneumoniae; conditions: for MIC: Klebsiella pneumoniae, ATCCBAA1705, antibiotics, 16–18 h at 37 °C, read-out: Antimicrobial activity (MIC) K. pneumoniae ATCC BAA-1705
Protocol: as §1, §2, §3

[12] = system: S. aureus ATCC 25923; test: microbe, parasite or virus in culture; conditions: for MIC: Staphylococcus aureus, ATCC25923, read-out: Antimicrobial activity (MIC) S. aureus ATCC 25923
Protocol: as §1, §2, §3

[13] = Critical aggregation concentration, Nile red fluorescence; format: physicochemical; conditions: aqueous solution, pH 7, Nile red, 1–200 µM peptide
Protocol: The solvatochromic fluorescent probe Nile red is widely used to determine the CAC of self-assembling peptides. […] Since Nile red is poorly soluble in water, there is a large preference to partition aggregates, which offer hydrophobic binding sites. Initially, 1 mM methanolic Nile red was prepared. Then, the methanolic Nile red was diluted with water in order to have a final concentration of 500 nM (solution A). The peptides 1B, 2B, 3B, C, were prepared as follows[39]: peptide stock solutions (0.4 mM) were prepared by dissolving the single peptides in water (1B, C) or tetrahydrofuran (3B, 2B) and sonicating for 15 min. Different aliquots were taken to prepare solutions of each peptide at different concentrations (1, 5, 10, 15, 20, 30, 50, 100 and 200 µM). Then, all solutions were diluted with water, sonicated for 15 min and freeze-dried. Finally, the peptide powders were dissolved with the right volume of solution A and allowed to stand in the dark place for 1 h before measurement. Emission spectra for each solution were measured by a Cary Eclipse Varian spectrometer. Spectra were taken between 570 and 700 nm at a slit width of 5 nm, using an excitation wavelength of 550 nm and a 10 nm slit width. The measurements were performed in triplicate. The data were analysed by plotting the maximum emission fluorescence corresponding wavelength (y) as a function of peptide concentration (x) and fitting with the sigmoidal Boltzmann equation: y=A1+A2/1+e^(x−x0/Δx)+A2 where the variables A1 and A2 correspond to the upper and lower limits of the sigmoid, x0 is the inflection point of the sigmoid and Δx is the parameter, which characterises the steepness of the function. The sigmoidal plot allows calculating the CAC value at x0.

[14] = ANTS/DPX leakage assay; conditions: ANTS/DPX-loaded LUVs, Gram-positive and Gram-negative mimicking
Protocol: Large unilamellar vesicles (LUVs) and small unilamellar vesicles (SUVs) consisting of DOPG/CL (58/42 ratio in moles) and DOPG/DOPE/CL (63/23/12 ratio in moles), mimic the Gram-positive membrane and Gram-negative membrane, respectively. LUVs were prepared using the extrusion method as previously described. In particular, first lipid films were prepared by dissolving an appropriate amount of lipids in chloroform and fluorescent probes were added when necessary, then dried under a nitrogen gas stream and freeze-dried overnight. In all experiments, we used a final lipid concentration of 0.1 mM. For fluorescence experiments, buffer was added to dry lipid films and vortexed for 1 h; then the lipid suspension was freeze-thawed 6 times and extruded 10 times through polycarbonate membranes with 0.1 µm diameter pores to obtain LUVs. For circular dichroism measurements, peptide samples in SUVs were prepared as reported in the following protocol. Lipids were dissolved in chloroform and added to an equal volume of peptide solution dissolved in TFE containing appropriate peptide concentration. The samples were vortexed and lyophilised overnight. The dry samples were rehydrated with phosphate buffer 5 mM, pH 7.4 for 1 h and sonicated for 30 min.
The ANTS/DPX leakage assay was used to measure the ability of peptide to permeabilise and induce leakage of encapsulated dyes. After lipid films were prepared as previously described, ANTS (12.5 mM) and DPX (45 mM) were dissolved in 2 ml water, were added to lipid films and then lyophilised overnight. The lipid films with encapsulated ANTS and DPX were hydrated with PBS 1X buffer, vortexed for 1 h and then treated to obtain LUVs. The non-encapsulated ANTS and DPX were removed by gel filtration using a Sephadex G-50 column (1.5 cm × 10 cm) at room temperature. To start up the leakage experiment, a 2 mM peptide stock solution was prepared and LUVs were titrated with the peptide. Samples were excited at 385 nm (slit width, 5 nm) and fluorescence emission was recorded at 512 nm (slit width, 5 nm). After the addition of peptide, we evaluated leakage of encapsulated ANTS through a change in fluorescence spectra of ANTS and DPX. In particular, leakage is associated to an increase in ANTS fluorescence at 512 nm. Complete release of ANTS was obtained by using 0.1% Triton X, which caused the total destruction of liposomes. The percentage of leakage was calculated as % leakage =(Fi−F0)/(Ft−F0), where F0 represents the fluorescence of intact LUVs before the addition of peptide, and Fi and Ft denote the intensities of the fluorescence achieved after peptide and Triton-X treatment, respectively.

[15] = system: HaCaT cells; conditions: 24 h, at 6.25 µM
Protocol: The human immortalised keratinocytes HaCaT cells (AddexBio, San Diego, CA, USA) were cultured in Dulbecco’s modified Eagle’s medium containing 4 mM glutamine (DMEMg), supplemented with 10% heat-inactivated foetal bovine serum (FBS) and 0.1 mg/ml of penicillin and streptomycin, at 37 °C and 5% CO2, in 25 cm^2 or 75 cm^2 flasks[33].
The colorimetric MTT assay was carried out to measure cellular metabolic activity in terms of cell viability[33]^,[36]. Viable cells are able to reduce, by active mitochondrial dehydrogenases, the yellow salt MTT to purple formazan crystals. Briefly, 4 × 10^4 HaCaT cells, suspended in DMEMg supplemented with 2% FBS, were plated in each well of a 96-well microtiter plate. After overnight incubation, at 37 °C in a 5% CO2 atmosphere, keratinocytes were treated for 24 h with fresh serum-free medium containing the peptides 3B and C at concentrations ranging from 3.12 µM to 25 µM. Afterward, the culture medium was replaced with Hank’s buffer supplemented with 0.5 mg/ml MTT and the plate was incubated at 37 °C and 5% CO2 for 4 h. At the end, acidified isopropanol was employed to dissolve the formazan crystals. Cell viability was calculated, with respect to cells not treated with peptide, by absorbance measurements at 570 nm using a microplate reader (Infinite M200; Tecan, Salzburg, Austria)[33]. […]

[16] = system: sheep red blood cells; format: cell-based; conditions: red cells of sheep, 24 h
Protocol: Sheep red blood cells were purchased from OXOID, SR0051D.
The haemolytic assay was conducted following the procedure described. […] Controls were erythrocytes treated with vehicle (water).

| SMILES | MIC [1] [µg/mL] | MIC [2] [µg/mL] | MIC [3] [µg/mL] | MIC [4] [µg/mL] | MIC [5] [µg/mL] | MIC [6] [µg/mL] | MIC [7] [µg/mL] | MIC [8] [µg/mL] | MIC [9] [µg/mL] | MIC [10] [µg/mL] | MIC [11] [µg/mL] | MIC [12] [µg/mL] | CAC (critical aggregation concentration) [13] [µM] | membrane leakage ability (in words) [14] | Antimicrobial activity (MIC) P. aeruginosa ATCC 27853 [1] [µM] | Antimicrobial activity (MIC) K. pneumoniae ATCC BAA-1705 [11] [µM] | Antimicrobial activity (MIC) S. aureus ATCC 25923 [12] [µM] | reduction in cell viability [15] | haemolytic potency [16] |
| --- | --- | --- | --- | --- | --- | --- | --- | --- | --- | --- | --- | --- | --- | --- | --- | --- | --- | --- | --- |
| CNC(C)C1CCC(N)C(OC2C(N)CC(N)C(OC3OCC(C)(O)C(NC)C3O)C2O)O1 (stereo not drawn) [Gentamicin] | 4 (≈ 8.38 µM) | < 1 | < 1 | > 4 | > 8 | 1 (≈ 2.09 µM) | < 1 | > 4 | > 4 | 1 (≈ 2.09 µM) | 4 (≈ 8.38 µM) | 1 (≈ 2.09 µM) |  |  |  |  |  |  |  |
| NC[C@H]1O[C@H](O[C@H]2[C@H](O)[C@@H](O[C@H]3O[C@H](CO)[C@@H](O)[C@H](N)[C@H]3O)[C@H](N)C[C@@H]2N)[C@H](N)C[C@@H]1O [Tobramycin] | 4 (≈ 8.56 µM) | < 1 | 1 (≈ 2.14 µM) | 4 (≈ 8.56 µM) | 2 (≈ 4.28 µM) | > 4 | 1 (≈ 2.14 µM) | 4 (≈ 8.56 µM) | 4 (≈ 8.56 µM) | 2 (≈ 4.28 µM) | > 4 | 1 (≈ 2.14 µM) |  |  |  |  |  |  |  |
| CCCCC(=O)N[C@@H](Cc1ccccc1)C(=O)N[C@H](C(=O)N1CCC[C@H]1C(=O)N[C@@H](Cc1c[nH]c2ccccc12)C(=O)N[C@@H](Cc1ccccc1)C(=O)N[C@@H](CO)C(=O)N[C@@H](CCCCN)C(=O)N[C@@H](Cc1ccccc1)C(=O)N[C@H](CC(C)C)C(=O)N[C@H](CCCCN)C(=O)N[C@@H](CCCNC(=N)N)C(=O)N[C@H](C(=O)N[C@@H](CC(C)C)C(N)=O)[C@@H](C)CC)C(C)C [Compound 2B, CH3(CH2)3CO-Phe-Val-Pro-Trp-Phe-Ser-Lys-Phe-DLeu-DLys-Arg-Ile-Leu-NH2] (Pentanoyl-FVPWFSKF[dL][dK]RIL-NH2) |  |  |  |  |  |  |  |  |  |  |  |  | 20.9 | highest leakage ability | 50 | 50 | 12.5 |  |  |
| CCCCCCC(=O)N[C@@H](Cc1ccccc1)C(=O)N[C@H](C(=O)N1CCC[C@H]1C(=O)N[C@@H](Cc1c[nH]c2ccccc12)C(=O)N[C@@H](Cc1ccccc1)C(=O)N[C@@H](CO)C(=O)N[C@@H](CCCCN)C(=O)N[C@@H](Cc1ccccc1)C(=O)N[C@H](CC(C)C)C(=O)N[C@H](CCCCN)C(=O)N[C@@H](CCCNC(=N)N)C(=O)N[C@H](C(=O)N[C@@H](CC(C)C)C(N)=O)[C@@H](C)CC)C(C)C [Compound 3B, CH3(CH2)5CO-Phe-Val-Pro-Trp-Phe-Ser-Lys-Phe-DLeu-DLys-Arg-Ile-Leu-NH2] (Heptanoyl-FVPWFSKF[dL][dK]RIL-NH2) |  |  |  |  |  |  |  |  |  |  |  |  | 9.33 | highest leakage ability | 25 | 50 | 3.12 | about 50% | over 50% |
